Columns and labels:
Matricaria chamomilla = test: Foliage treatment test (Test Example 1), foliage spray; format: in vivo; settings: 250 g per hectare, three weeks after, fresh grass mass of aerial part vs untreated
Procedure: (§1) POA allylphenyl ether (4.1 parts by mass), POE-POP glycol (1 part by mass), POE sorbitanlaurate (0.8 parts by mass), glycerin (2.6 parts by mass), dimethylformamide (65.9 parts by mass), N-methylpyrolidone (5.1 parts by mass), cyclohexanone (15.4 parts by mass), and aromatic hydrocarbon (5.1 parts by mass) were mixed and dissolved to prepare an emulsion. The compound according to the present invention (4 mg) was dissolved in the emulsion (100 μL) to prepare a test emulsion. The term “POA” means “polyoxyalkylene”, the term “POE” means “polyoxyethylene”, and the term “POP” means “polyoxypropylene”.
(§2) 150 cm^2 pots were filled with soil, and then seeds of Avena sativa, Matricaria chamomilla, Setaria faberi, Digitaria ciliaris, Abutilon theophrasti and Amaranthus retroflexus were sown on the surface layer of each of the pots, respectively, followed by lightly covering with soil. Then, the seeds were grown in a greenhouse. When each plant was grown to obtain a grass height of 2 cm to 4 cm, the above-mentioned test emulsion diluted to obtain a predetermined active ingredient amount was sprayed onto the leaves and stems at a spray volume of 250 L per hectare using a small sprayer.
(§3) Three weeks after, the fresh grass mass at an aerial part on an untreated area or a treated area was measured per weed, and the herbicidal ratio was calculated by the following calculation formula.
(§4) Herbicidal ratio (%)=(the fresh grass mass at an aerial part on untreated area−the fresh grass mass at an aerial part on treated area)/(the fresh grass mass at an aerial part on untreated area)×100

Digitaria ciliaris [1] = test: as above; format: in vivo; settings: 250 g per hectare, three weeks after, fresh grass mass of aerial part vs untreated
Procedure: as §1, §2, §3, §4

Amaranthus retroflexus [2] = test: as above; format: in vivo; settings: 250 g per hectare, three weeks after, fresh grass mass of aerial part vs untreated
Procedure: as §1, §2, §3, §4

Digitaria ciliaris [3] = test: Soil treatment test (Test Example 2); format: in vivo; settings: four weeks after
Procedure: (§5) A test emulsion was prepared by the same method as that in Test example 1.
(§6) 70 cm^2 pots were filled with soil, and then seeds of Digitaria ciliaris and Amaranthus retroflexus were sown on the surface layer of each of the pots, respectively, followed by lightly covering with soil. On the next day, the above-mentioned test emulsion was diluted to obtain a predetermined active ingredient amount, and then was sprayed onto the soil surface at a spray volume of 2860 L per hectare using a small sprayer.
(§7) Four weeks after, the fresh grass mass at an aerial part on an untreated area or a treated area was measured per weed, and the herbicidal ratio was calculated by the following calculation formula.
as §4
(§8) The compounds A-1 and A-4 were sprayed at a spray amount of 63 g or 31 g per hectare, respectively.
(§9) In addition, the following compounds (A) to (C) disclosed in Patent Document 1 were sprayed in a similar manner.

Amaranthus retroflexus [4] = test: Soil treatment test (Test Example 2); format: in vivo; settings: four weeks after
Procedure: as §5, §6, §7, §4, §8, §9

Avena sativa = test: Foliage treatment test (Test Example 1), foliage spray; format: in vivo; settings: 250 g per hectare, three weeks after, fresh grass mass of aerial part vs untreated
Procedure: as §1, §2, §3, §4

Setaria faberi = test: Foliage treatment test (Test Example 1), foliage spray; format: in vivo; settings: 250 g per hectare, three weeks after, fresh grass mass of aerial part vs untreated
Procedure: as §1, §2, §3, §4

| SMILES | Herbicidal ratio against Matricaria chamomilla (Matricaria chamomilla) [%] | Herbicidal ratio against Digitaria ciliaris (Digitaria ciliaris [1]) [%] | Herbicidal ratio against Amaranthus retroflexus (Amaranthus retroflexus [2]) [%] | Herbicidal ratio Digitaria ciliaris (Digitaria ciliaris [3]; spray amount 31 g/ha) [%] | Herbicidal ratio Digitaria ciliaris (Digitaria ciliaris [3]; spray amount 63 g/ha) [%] | Herbicidal ratio Amaranthus retroflexus (Amaranthus retroflexus [4]; spray amount 31 g/ha) [%] | Herbicidal ratio Amaranthus retroflexus (Amaranthus retroflexus [4]; spray amount 63 g/ha) [%] | Herbicidal ratio against Avena sativa (Avena sativa) [%] | melting point [°C] | Herbicidal ratio against Setaria faberi (Setaria faberi) [%] |
| --- | --- | --- | --- | --- | --- | --- | --- | --- | --- | --- |
| COCCOc1c(S(C)(=O)=O)ccc(-c2cnn(C)c(=O)c2OC(C)OC(=O)OC)c1Cl (stereo not shown) [Compound A-8] | 100 | 100 | 100 |  |  |  |  |  |  |  |
| CC(=O)Oc1c(-c2ccc(C(F)(F)F)cc2S(C)(=O)=O)cnn(C)c1=O [(B)] |  |  |  | 0 | 30 | 0 | 0 |  |  |  |
| Cc1ccc(S(=O)(=O)Oc2c(-c3ccc(C(F)(F)F)cc3S(C)(=O)=O)cnn(C)c2=O)cc1 [(C)] |  |  |  | 40 | 70 | 0 | 0 |  |  |  |
| COC(=O)OC(C)Oc1c(-c2ccc(C(F)(F)F)cc2S(C)(=O)=O)cnn(C)c1=O (stereo not shown) [Compound A-4, methyl (1-((2-methyl-5-(2-(methylsulfonyl)-4-(trifluoromethyl)phenyl)-3-oxo-2,3-dihydropyridazin-4-yl)oxy)ethyl) carbonate] | 100 | 100 | 100 |  | 100 |  | 100 | 100 | 173 to 176 |  |
| CC(OC(=O)C(C)C)Oc1c(-c2ccc(C(F)(F)F)cc2S(C)(=O)=O)cnn(C)c1=O (stereo not shown) [Compound A-1] | 100 | 100 | 100 | 100 | 100 | 100 | 100 | 100 |  | 100 |
| CC(C)C(=O)OCOc1c(-c2ccc(C(F)(F)F)cc2S(C)(=O)=O)cnn(C)c1=O [Compound A-5] | 100 | 100 | 100 |  |  |  |  | 100 |  | 100 |
| COC(=O)OCOc1c(-c2ccc(C(F)(F)F)cc2S(C)(=O)=O)cnn(C)c1=O [Compound A-3] | 100 | 100 | 100 |  |  |  |  | 100 |  | 100 |
| COC(=O)OC(C)Oc1c(-c2ccc(C(F)(F)F)c(NC(=O)C3CC3)c2C)cnn(C)c1=O (stereo not shown) [Compound A-9] | 100 |  | 100 |  |  |  |  | 100 |  | 100 |
| COC(=O)OC(C)Oc1c(-c2ccc(S(C)(=O)=O)c(C3=NOCC3)c2Cl)cnn(C)c1=O (stereo not shown) [Compound A-7] | 100 | 100 | 100 |  |  |  |  | 100 |  | 100 |
| Cn1ncc(-c2ccc(C(F)(F)F)cc2S(C)(=O)=O)c(O)c1=O [(A)] |  |  |  | 0 | 0 | 0 | 0 |  |  |  |
| COC(=O)OC(C)Oc1c(-c2ccc(S(C)(=O)=O)cc2Cl)cnn(C)c1=O (stereo not shown) [Compound A-2] | 100 |  |  |  |  |  |  | 100 |  |  |

— patent publication US20220312767A1, “PYRIDAZINE COMPOUNDS AND HERBICIDES” (Nippon Soda Co., Ltd., priority 2019, published 2022)
